Experiment: xn = mol fraction of the nth substance listed
Details: 101 kPa

CCCC[n+]1ccn(C)c1.F[P-](F)(F)(F)(F)F + O
electrical conductivity [S/m]
Details	293.2 K	298.2 K	303.2 K	308.2 K	313.2 K	318.2 K	323.2 K	333.2 K	343.2 K	353.2 K
x2 = 0.05	0.181	–	0.291	0.351	0.423	–	0.592	0.701	0.833	1.06
x2 = 0.1	–	0.268	0.331	–	0.488	0.563	–	0.797	0.928	1.22
x2 = 0.15	0.235	–	0.382	0.469	–	0.675	0.792	0.923	–	–
x2 = 0.2	0.29	0.364	0.448	–	0.652	–	0.911	–	1.23	–
